Results on 13 molecules are retold here after patent EP0591582B1, “Hexahydrobenzo (f) quinolinones as 5-alpha-reductase inhibitors” (ELI LILLY AND COMPANY, priority 1992, dated 1994).

The first experiment has as its target T1, 5α-reductase (Homo sapiens, UniProt P18405).
T1 construct: host or cells: Hs68 human genital skin fibroblasts
T1 sequence (P18405 1-259): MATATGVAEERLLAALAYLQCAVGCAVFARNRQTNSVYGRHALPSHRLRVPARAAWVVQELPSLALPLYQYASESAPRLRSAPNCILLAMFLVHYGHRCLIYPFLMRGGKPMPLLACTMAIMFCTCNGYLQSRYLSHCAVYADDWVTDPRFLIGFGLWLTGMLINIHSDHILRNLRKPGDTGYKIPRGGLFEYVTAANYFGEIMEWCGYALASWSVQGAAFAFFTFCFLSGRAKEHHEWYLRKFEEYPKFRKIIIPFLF
Kind of experiment: 5α-Reductase activity (conversion of testosterone to DHT) in Hs68 human genital skin fibroblasts, TLC of radiolabelled steroids. It counts as cell-based. The conditions noted are these: Concentration 0.316 mM; Hs68 cells, four hours incubation; 0 equals no activity, 100 equals total inhibition. As to the method:
Cell Culture: 5α-Reductase activity was measured using Hs68 human genital skin fibroblasts which were originally purchased from the American Type Culture Collection(Rockville, MD). The cells were grown in Dulbecco's Modified Eagle's Medium (DMEM) plus 10% stripped fetal bovine serum which was supplemented with amphotericin B ([…]) and gentamicin ([…]) (GIBCO, Grand Island, NY). The serum was stripped of endogenous steroids by incubation with dextran-coated charcoal prior to its addition to the media. The cells were maintained at 37°C in an atmosphere of 95% air, 5% CO2 and were passaged every 7-10 days by exposure to a trypsin-EDTA solution (0.025% trypsin, 0.265 mM EDTA). Prior to the assay the Hs68 cells were harvested and plated in Falcon 6-well plates (Becton Dickinson Labware, Lincoln Park, NJ) at a density of 6 x 10^4 cells per well. The cells were allowed to grow for 4-5 days or until they reached approximately 80% confluence.
Assay Method I: The substrate was prepared by dissolving unlabeled testosterone (Sigma Chemical Co., St. Louis, MO) in absolute ethanol followed by the addition of [7-^3H (N)]-testosterone (23.3 Ci/mmole, New England Nuclear, Boston, MA). The steroid solution was taken to dryness under a stream of nitrogen and then reconstituted in media.
Assay Method II: The substrate used for this method was [^14C]-testosterone (50 mCi/mmol) (New England Nuclear, Boston, MA). An aliquot of the substrate was taken to dryness under a stream of nitrogen. After the addition of […] of ethanol, the testosterone was brought up in an appropriate volume of media.
Sample Preparation: The test compounds were dissolved in absolute ethanol in order to achieve the desired concentration. Subsequent dilutions of the test compounds with media were performed by the Biomek 1000 Automated Laboratory Workstation (Beckman Instruments, Palo Alto, CA). The existing media in the sample wells was aspirated and replaced with fresh media. Test compound was then added to the wells followed by the addition of 0.5 ml of the substrate. The volume of the incubation mixture was maintained at 2.0 ml. The final substrate concentration was […]. The concentration of the test compounds ranged from 0.001-15 mM. An additional three wells (background) containing media and substrate but no cells were also included to account for the non-enzymatic metabolism of the substrate. The plates were returned to the incubator and incubated for four hours.
At the end of the incubation the media was collected and transferred to an extraction tube containing 5 ml of toluene-ethanol (9:1), to which has been added […] each of unlabeled carrier steroids (estriol, estradiol, estrone, 5α-androstan-3α,17b-diol, 5α-androstan-3b,17b-diol, 4-androstene-3,17-dione, 5α-androstan-3,17-dione, testosterone, and 5α-dihydrotestosterone) (Steraloids, Inc. Wilton, NH). In the case of Assay Method I the extraction tube also contained 1,000 and 10,000 dpm of [4-^14C]-dihydrotestosterone(50-60 mCi/mmol) and [4-^14C]-testosterone (50 mCi/mmol) (New England Nuclear, Boston, MA), respectively. The [^14C]-steroids were included as recovery standards to quantify procedural losses. A small amount of NaCl was also added to the extraction tubes to prevent foaming. The samples were vortexed for approximately 30 seconds and then centrifuged for 10 minutes at 500 x g. The organic phase was collected and the samples taken to dryness, redissolved in dichloromethane-methanol (9:1) and were analyzed by thin layer chromatography using one of the methods described below.
Chromatography Method I (two-dimensional): The extracted samples were appled to silica gel 60F254, 0.25 mm thick, thin layer chromatography plates (EM Science, Cincinnati, OH). The plates were developed in the first dimension with a solvent system containing dichloromethaneethyl acetate-methanol-acetic acid (160:38:1.5:0.5, Mallinckrodt Inc., Paris, KY). […]
As usually defined, the inhibition is the relative decrease from the control value, in per cent. The low end stands for little suppression, the high end for strong suppression. Molecule `O=C1CCC2=C(CCc3cc(Cl)c(Cl)cc32)N1` [Example 3, 8,9-dichloro-1,2,3,4,5,6-hexahydrobenzo[f]quinolin-3-one] had an inhibition at 316 µM of 85%. Regarding `CC1(C)CC2=C(CCC(=O)N2)c2ccc(Br)cc21` [Example 14, 8-bromo-6,6-dimethyl-1,2,3,4,5,6-hexahydrobenzo[f]quinolin-3-one], the inhibition at 316 µM stood at 30%. In turn, `O=C1CCC2=C(CCc3cc(Br)ccc32)N1` [Example 1, 8-bromo-1,2,3,4,5,6-hexahydrobenzo[f]quinolin-3-one] registered an inhibition at 316 µM of 73%.

Staying with this experiment, now noted: Concentration 3.16 mM; Hs68 cells, four hours incubation; 0 equals no activity, 100 equals total inhibition.
Turning to `CC(C)(C)c1ccc2c(c1)CCC1=C2CCC(=O)N1` [Example 15, 8-t-butyl-1,2,3,4,5,6-hexahydrobenzo[f]quinolin-3-one], the inhibition at 3160 µM stood at 30%.

The same experiment, now with this note: Concentration 10.0 mM; Hs68 cells, four hours incubation; 0 equals no activity, 100 equals total inhibition.
In turn, `CN1C(=O)CCC2=C1CCc1cc(Cl)ccc12` [Example 4, 8-chloro-4-methyl-1,2,3,4,5,6-hexahydrobenzo[f]quinolin-3-one] yielded an inhibition at 10000 µM of 91%.

As to `O=C1CCC2=C(CCc3ccccc32)N1` [Example 8, 1,2,3,4,5,6-hexahydrobenzo[f]quinolin-3-one], the inhibition at 10000 µM came out at 63%. Still for that read-out and setting: the figure for `CN1C(=O)CCC2=C1CCc1cc(F)ccc12` [Example 6, 8-fluoro-4-methyl-1,2,3,4,5,6-hexahydrobenzo[f]quinolin-3-one] is 81%; for `Cc1ccc2c(c1)CCC1=C2CCC(=O)N1` [Example 13, 8-methyl-1,2,3,4,5,6-hexahydrobenzo[f]quinolin-3-one] it is 100%. The same measure, in the same setting: to `Cc1ccc2c(c1)CCC1=C2CCC(=O)N1C` [Example 5, 4,8-dimethyl-1,2,3,4,5,6-hexahydrobenzo[f]quinolin-3-one] belongs 100%; to `CCCCN1C(=O)CCC2=C1CCc1cc(F)ccc12` [Example 25, 8-fluoro-4-n-butyl-1,2,3,4,5,6-hexahydrobenzo[f]quinolin-3-one], 56%; to `O=C1CCC2=C(CCc3cc(F)ccc32)N1` [Example 9, 8-fluoro-1,2,3,4,5,6-hexahydrobenzo[f]quinolin-3-one], 76%. Turning to `CN1C(=O)CCC2=C1CCc1cc(Br)ccc12` [Example 2, 8-bromo-4-methyl-1,2,3,4,5,6-hexahydrobenzo-[f]quinolin-3-one], the inhibition at 10000 µM amounted to 98%.

The experiment is the same for the next values; noted with them: Concentration 1.0 (1.00) mM; Hs68 cells, four hours incubation; 0 equals no activity, 100 equals total inhibition.
The % Inhibition is the change of the read-out against control, counted positive when it falls. Low readings indicate a weak effect, high ones a strong effect. Turning to `O=C1CCC2=C(CCc3cccc(F)c32)N1` [Example 20, 10-fluoro-1,2,3,4,5,6-hexahydrobenzo[f]quinolin-3-one], the “% Inhibition” value was 22%.
